# The supplement of paper PMC10307832
# Columns and labels:
# Assay in all cases: relative viability (nuclei count vs DMSO), 5 days (fraction); higher = more cells survive
# [1] = system: NCI-H650
# Method in brief: (§1)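 A single step with final 0.05% Triton X-100, 1% formaldehyde and 1 ug/ml Hoechst fixed the cells and stained nuclei 5 days after treatment. Lung cancer cell lines in 1536-well plates had been treated by pin tool the day after seeding with one drug alone or a fixed anchor-drug dose plus five library-drug doses (not always all listed) in √10 steps, and nuclei were counted on 4× images. Relative viability is the ratio of nuclei in treated wells to nuclei in vehicle wells, taken as the median of duplicate plates.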
# [2] = system: NCI-H23
# Method in brief: as §1
# [3] = system: HOP-62
# Method in brief: as §1
# [4] = system: NCI-H2126
# Method in brief: as §1
# [5] = system: NCI-H441
# Method in brief: as §1
# [6] = system: NCI-H2170
# Method in brief: as §1
# [7] = system: LOU-NH91
# Method in brief: as §1
# [8] = system: NCI-H1437
# Method in brief: as §1
# [9] = system: ChaGo-K-1
# Method in brief: as §1
# [10] = system: NCI-H1793
# Method in brief: as §1
# [11] = system: NCI-H647
# Method in brief: as §1
# [12] = system: PC-14
# Method in brief: as §1
# [13] = system: SW 1573
# Method in brief: as §1
# [14] = system: SW 900
# Method in brief: as §1
# [15] = system: NCI-H2347
# Method in brief: as §1
# [16] = system: NCI-H2023
# Method in brief: as §1
# [17] = system: LCLC-103H
# Method in brief: as §1
# [18] = system: HCC-44
# Method in brief: as §1
# [19] = system: EPLC-272H
# Method in brief: as §1
# [20] = system: NCI-H2405
# Method in brief: as §1
# [21] = system: NCI-H460
# Method in brief: as §1
# [22] = system: EMC-BAC-2
# Method in brief: as §1
# [23] = system: NCI-H2009
# Method in brief: as §1
# [24] = system: NCI-H520
# Method in brief: as §1
compound,measurement,setting,value
CCCCCCCCCCCC1=C(O)C(=O)C=C(O)C1=O [Embelin] + Nc1nc2[nH]cc(CCc3ccc(C(=O)N[C@@H](CCC(=O)O)C(=O)O)cc3)c2c(=O)[nH]1 [Pemetrexed] (partner 0.2 µM),relative viability,[1]; first compound 0.08 µM,0.968
same,relative viability,[1]; first compound 0.8 µM,1.17
same,relative viability,[1]; first compound 2.53 µM,0.979
same,relative viability,[1]; first compound 8 µM,0.954
same,relative viability,[2]; first compound 0.08 µM,0.786
same,relative viability,[2]; first compound 0.8 µM,0.675
same,relative viability,[2]; first compound 2.53 µM,0.589
same,relative viability,[2]; first compound 8 µM,0.665
same,relative viability,[3]; first compound 0.08 µM,0.384
same,relative viability,[3]; first compound 0.8 µM,0.365
same,relative viability,[3]; first compound 2.53 µM,0.308
same,relative viability,[3]; first compound 8 µM,0.303
same,relative viability,[4]; first compound 0.08 µM,0.735
same,relative viability,[4]; first compound 0.8 µM,0.636
same,relative viability,[4]; first compound 2.53 µM,0.654
same,relative viability,[4]; first compound 8 µM,0.69
same,relative viability,[5]; first compound 0.08 µM,0.255
same,relative viability,[5]; first compound 0.8 µM,0.261
same,relative viability,[5]; first compound 2.53 µM,0.301
same,relative viability,[5]; first compound 8 µM,0.274
same,relative viability,[6]; first compound 0.08 µM,0.264
same,relative viability,[6]; first compound 0.8 µM,0.252
same,relative viability,[6]; first compound 2.53 µM,0.276
same,relative viability,[6]; first compound 8 µM,0.274
same,relative viability,[7]; first compound 0.08 µM,0.357
same,relative viability,[7]; first compound 0.8 µM,0.385
same,relative viability,[7]; first compound 2.53 µM,0.381
same,relative viability,[7]; first compound 8 µM,0.466
same,relative viability,[8]; first compound 0.08 µM,0.339
same,relative viability,[8]; first compound 0.8 µM,0.306
same,relative viability,[8]; first compound 2.53 µM,0.317
same,relative viability,[8]; first compound 8 µM,0.215
same,relative viability,[9]; first compound 0.08 µM,0.264
same,relative viability,[9]; first compound 0.8 µM,0.258
same,relative viability,[9]; first compound 2.53 µM,0.249
same,relative viability,[9]; first compound 8 µM,0.251
same,relative viability,[10]; first compound 0.08 µM,0.82
same,relative viability,[10]; first compound 0.8 µM,1.06
same,relative viability,[10]; first compound 2.53 µM,1.18
same,relative viability,[10]; first compound 8 µM,0.37
same,relative viability,[11]; first compound 0.08 µM,0.19
same,relative viability,[11]; first compound 0.8 µM,0.246
same,relative viability,[11]; first compound 2.53 µM,0.169
same,relative viability,[11]; first compound 8 µM,0.214
same,relative viability,[12]; first compound 0.08 µM,0.158
same,relative viability,[12]; first compound 0.8 µM,0.126
same,relative viability,[12]; first compound 2.53 µM,0.134
same,relative viability,[12]; first compound 8 µM,0.153
same,relative viability,[13]; first compound 0.08 µM,0.92
same,relative viability,[13]; first compound 0.8 µM,0.844
same,relative viability,[13]; first compound 2.53 µM,0.99
same,relative viability,[13]; first compound 8 µM,0.931
same,relative viability,[14]; first compound 0.08 µM,0.495
same,relative viability,[14]; first compound 0.8 µM,0.527
same,relative viability,[14]; first compound 2.53 µM,0.52
same,relative viability,[14]; first compound 8 µM,0.473
same,relative viability,[15]; first compound 0.08 µM,0.413
same,relative viability,[15]; first compound 0.8 µM,0.482
same,relative viability,[15]; first compound 2.53 µM,0.448
same,relative viability,[15]; first compound 8 µM,0.434
same,relative viability,[16]; first compound 0.08 µM,0.206
same,relative viability,[16]; first compound 0.8 µM,0.244
same,relative viability,[16]; first compound 2.53 µM,0.226
same,relative viability,[16]; first compound 8 µM,0.249
same,relative viability,[17]; first compound 0.08 µM,0.49
same,relative viability,[17]; first compound 0.8 µM,0.485
same,relative viability,[17]; first compound 2.53 µM,0.449
same,relative viability,[17]; first compound 8 µM,0.458
same,relative viability,[18]; first compound 0.08 µM,0.634
same,relative viability,[18]; first compound 0.8 µM,0.632
same,relative viability,[18]; first compound 2.53 µM,0.599
same,relative viability,[18]; first compound 8 µM,0.699
same,relative viability,[19]; first compound 0.08 µM,0.361
same,relative viability,[19]; first compound 0.8 µM,0.302
same,relative viability,[19]; first compound 2.53 µM,0.331
same,relative viability,[19]; first compound 8 µM,0.247
same,relative viability,[20]; first compound 0.08 µM,1.09
same,relative viability,[20]; first compound 0.8 µM,1.15
same,relative viability,[20]; first compound 2.53 µM,1.18
same,relative viability,[20]; first compound 8 µM,0.818
same,relative viability,[21]; first compound 0.08 µM,0.0662
same,relative viability,[21]; first compound 0.8 µM,0.072
same,relative viability,[21]; first compound 2.53 µM,0.0629
same,relative viability,[21]; first compound 8 µM,0.0617
same,relative viability,[22]; first compound 0.08 µM,0.472
same,relative viability,[22]; first compound 0.8 µM,0.53
same,relative viability,[22]; first compound 2.53 µM,0.399
same,relative viability,[22]; first compound 8 µM,0.49
same,relative viability,[23]; first compound 0.08 µM,1.08
same,relative viability,[23]; first compound 0.8 µM,1.09
same,relative viability,[23]; first compound 2.53 µM,1.06
same,relative viability,[23]; first compound 8 µM,1.01
same,relative viability,[24]; first compound 0.08 µM,0.656
same,relative viability,[24]; first compound 0.8 µM,0.852
same,relative viability,[24]; first compound 2.53 µM,0.708
same,relative viability,[24]; first compound 8 µM,0.821
